Measured values taken from ChEMBL document CHEMBL1143919, “Sugar Chips immobilized with synthetic sulfated disaccharides of heparin/heparan sulfate partial structure” (Bioorg Med Chem Lett, 2008).

Experiments:
Fibronectin = Fibronectin (Homo sapiens, UniProt P02751); experiment: Binding affinity to fibronectin using surface plasmon resonance imaging sensor method
[1] = Binding affinity to human recombinant von Willebrand factor A1 domain using surface plasmon resonance imaging sensor

Fibronectin, sequence (P02751 whole entry, the tested form may be a part): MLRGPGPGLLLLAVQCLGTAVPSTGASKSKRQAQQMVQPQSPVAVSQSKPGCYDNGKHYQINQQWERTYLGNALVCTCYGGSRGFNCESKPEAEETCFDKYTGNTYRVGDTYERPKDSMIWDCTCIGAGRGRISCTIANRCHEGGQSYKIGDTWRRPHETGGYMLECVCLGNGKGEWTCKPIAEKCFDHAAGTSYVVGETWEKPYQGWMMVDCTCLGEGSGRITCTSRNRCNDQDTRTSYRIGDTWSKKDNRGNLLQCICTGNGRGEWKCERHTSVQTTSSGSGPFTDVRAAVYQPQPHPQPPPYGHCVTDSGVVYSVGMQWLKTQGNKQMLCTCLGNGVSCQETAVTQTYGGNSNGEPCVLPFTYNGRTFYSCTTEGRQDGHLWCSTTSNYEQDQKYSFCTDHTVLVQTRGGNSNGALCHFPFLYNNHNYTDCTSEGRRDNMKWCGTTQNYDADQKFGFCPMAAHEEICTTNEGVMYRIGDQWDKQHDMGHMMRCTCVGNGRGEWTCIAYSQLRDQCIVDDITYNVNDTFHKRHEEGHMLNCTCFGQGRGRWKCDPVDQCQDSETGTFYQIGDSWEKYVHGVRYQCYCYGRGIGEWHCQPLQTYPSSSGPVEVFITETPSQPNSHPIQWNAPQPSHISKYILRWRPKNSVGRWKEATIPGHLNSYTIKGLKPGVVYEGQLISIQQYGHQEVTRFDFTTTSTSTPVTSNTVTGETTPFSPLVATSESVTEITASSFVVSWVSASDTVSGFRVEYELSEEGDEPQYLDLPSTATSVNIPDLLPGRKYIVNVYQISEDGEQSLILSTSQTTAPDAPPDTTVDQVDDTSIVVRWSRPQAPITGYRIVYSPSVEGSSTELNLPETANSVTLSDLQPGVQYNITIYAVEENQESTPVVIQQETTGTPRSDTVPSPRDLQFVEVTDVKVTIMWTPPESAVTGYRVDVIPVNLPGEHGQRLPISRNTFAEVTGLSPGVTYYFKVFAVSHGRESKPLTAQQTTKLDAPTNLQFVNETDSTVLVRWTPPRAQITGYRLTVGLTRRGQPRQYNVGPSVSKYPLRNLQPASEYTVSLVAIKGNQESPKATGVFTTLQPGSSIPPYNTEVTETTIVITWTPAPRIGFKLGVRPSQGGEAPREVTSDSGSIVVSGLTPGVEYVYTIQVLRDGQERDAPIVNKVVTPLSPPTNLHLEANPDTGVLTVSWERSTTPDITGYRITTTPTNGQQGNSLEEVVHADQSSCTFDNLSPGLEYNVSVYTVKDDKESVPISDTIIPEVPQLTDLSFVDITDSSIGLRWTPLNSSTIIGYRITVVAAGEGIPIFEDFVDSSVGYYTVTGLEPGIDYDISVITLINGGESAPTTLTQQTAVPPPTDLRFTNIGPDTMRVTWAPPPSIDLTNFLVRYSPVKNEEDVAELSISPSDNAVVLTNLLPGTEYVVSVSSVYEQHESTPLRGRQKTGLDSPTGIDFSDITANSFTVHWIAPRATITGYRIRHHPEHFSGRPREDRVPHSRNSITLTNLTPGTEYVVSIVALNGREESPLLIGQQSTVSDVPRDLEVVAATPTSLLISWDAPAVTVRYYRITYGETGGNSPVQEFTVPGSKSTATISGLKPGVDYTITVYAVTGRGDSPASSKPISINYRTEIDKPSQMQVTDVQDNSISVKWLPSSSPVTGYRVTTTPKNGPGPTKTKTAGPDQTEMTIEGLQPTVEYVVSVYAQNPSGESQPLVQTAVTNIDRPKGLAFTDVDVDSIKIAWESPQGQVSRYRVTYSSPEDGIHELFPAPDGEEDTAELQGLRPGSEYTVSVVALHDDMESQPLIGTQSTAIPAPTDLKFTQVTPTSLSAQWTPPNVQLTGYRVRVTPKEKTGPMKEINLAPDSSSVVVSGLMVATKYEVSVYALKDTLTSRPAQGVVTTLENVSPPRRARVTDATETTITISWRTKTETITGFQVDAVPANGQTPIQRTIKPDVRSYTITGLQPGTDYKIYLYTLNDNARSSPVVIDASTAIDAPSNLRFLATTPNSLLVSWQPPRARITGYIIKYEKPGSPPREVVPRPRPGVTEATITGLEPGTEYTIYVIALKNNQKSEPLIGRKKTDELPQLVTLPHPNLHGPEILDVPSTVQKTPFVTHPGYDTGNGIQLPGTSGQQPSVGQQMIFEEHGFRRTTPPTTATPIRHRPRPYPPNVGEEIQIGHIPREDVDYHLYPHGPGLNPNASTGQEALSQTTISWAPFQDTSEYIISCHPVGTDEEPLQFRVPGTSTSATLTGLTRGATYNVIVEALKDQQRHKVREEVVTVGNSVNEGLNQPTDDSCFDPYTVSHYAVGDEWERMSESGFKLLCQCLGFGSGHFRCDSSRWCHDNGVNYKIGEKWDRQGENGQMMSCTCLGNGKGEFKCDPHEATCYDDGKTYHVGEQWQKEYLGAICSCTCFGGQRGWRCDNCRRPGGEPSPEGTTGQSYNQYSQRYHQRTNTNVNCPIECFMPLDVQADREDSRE

Kd (Fibronectin) | Kd [1] | SMILES
30 nM | 900 nM | CO[C@H]1[C@H](O)[C@@H](NS(=O)(=O)O)[C@@H](O[C@H]2[C@H](O)[C@@H](OS(=O)(=O)O)[C@H](OC[C@@H](O)[C@@H](O)[C@H](O)[C@@H](O)CNc3cccc(NC(=O)CCCCC4CCSS4)c3)O[C@H]2C(=O)O)O[C@@H]1CO (stereo partly drawn)
6.5 nM | 1400 nM | CO[C@H]1[C@H](O)[C@@H](NS(=O)(=O)O)[C@@H](O[C@H]2[C@H](O)[C@@H](O)[C@H](OC[C@@H](O)[C@@H](O)[C@H](O)[C@@H](O)CNc3cccc(NC(=O)CCCCC4CCSS4)c3)O[C@@H]2C(=O)O)O[C@@H]1COS(=O)(=O)O (stereo partly drawn)
5.5 nM | 1000 nM | CO[C@H]1[C@H](O)[C@@H](NS(=O)(=O)O)[C@@H](O[C@H]2[C@H](O)[C@@H](OS(=O)(=O)O)[C@H](OC[C@@H](O)[C@@H](O)[C@H](O)[C@@H](O)CNc3cccc(NC(=O)CCCCC4CCSS4)c3)O[C@H]2C(=O)O)O[C@@H]1COS(=O)(=O)O (stereo partly drawn)
33 nM | 4300 nM | CO[C@H]1[C@H](O)[C@@H](NS(=O)(=O)O)[C@@H](O[C@H]2[C@H](O)[C@@H](O)[C@H](OC[C@@H](O)[C@@H](O)[C@H](O)[C@@H](O)CNc3cccc(NC(=O)CCCCC4CCSS4)c3)O[C@@H]2C(=O)O)O[C@@H]1CO (stereo partly drawn)
